pKi: −log10 of the molar value.
Target: T1, human FAAH (Homo sapiens, UniProt O00519)
T1 construct: host or cells: COS-7 cells, transient transfection; 13,000 g membrane fraction solubilised in 1% Triton X-100
T1 sequence (O00519 1-579): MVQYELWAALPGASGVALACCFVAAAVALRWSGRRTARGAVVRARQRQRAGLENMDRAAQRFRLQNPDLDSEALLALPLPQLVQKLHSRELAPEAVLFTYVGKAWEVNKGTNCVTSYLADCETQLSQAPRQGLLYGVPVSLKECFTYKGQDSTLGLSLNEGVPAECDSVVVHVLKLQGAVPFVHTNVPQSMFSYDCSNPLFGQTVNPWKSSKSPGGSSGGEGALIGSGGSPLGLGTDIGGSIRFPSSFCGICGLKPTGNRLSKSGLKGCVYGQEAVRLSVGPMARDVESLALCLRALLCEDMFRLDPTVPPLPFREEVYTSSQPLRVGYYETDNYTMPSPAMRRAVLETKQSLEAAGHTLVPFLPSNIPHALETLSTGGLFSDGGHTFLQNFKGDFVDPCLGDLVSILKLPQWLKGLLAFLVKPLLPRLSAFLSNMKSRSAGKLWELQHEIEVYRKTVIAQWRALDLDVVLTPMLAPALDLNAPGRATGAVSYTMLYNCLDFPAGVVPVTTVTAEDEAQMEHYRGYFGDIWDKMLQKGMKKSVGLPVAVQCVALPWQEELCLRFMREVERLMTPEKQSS
Assay: Human FAAH biochemical inhibition assay (AMC arachidonoyl amide fluorescence)
Details: Table 2, human FAAH (no asterisk); read-out: Activity (Ki)
In short: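 Solubilized membrane fraction from COS-7 cells transfected with human FAAH, used at a final 0.05 mg/ml in 50 mM Hepes pH 7.5, 1 mM EDTA, 0.2% Triton X-100. Inhibitor pre-incubated 30 min at room temperature; 20 uM final AMC arachidonoyl amide added, reaction run 4 h at room temperature, fluorescence read.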

Row | pKi | Compound
1 | > 8.00 | OB(O)c1ccc(COCc2cccc3ccccc23)cc1 [II-111]
2 | < 6.00 | CN(Cc1ccc(B(O)O)c2ccccc12)c1ccccc1 [II-112]
3 | 7.00 to 8.00 | OB(O)c1cccc(OCCc2ccccc2)c1 [II-113]
4 | > 8.00 | OB(O)c1cccc(Oc2ccccc2)c1 [II-114]
5 | 7.00 to 8.00 | OB(O)c1cccc(OCCCc2ccccc2)c1 [II-115]
6 | 7.00 to 8.00 | CCO/N=C(\c1ccccc1)c1ccc(B(O)O)cc1 [II-116]
7 | 7.00 to 8.00 | OB(O)c1ccc(CCOc2ccccc2)cc1 [II-117]
8 | < 6.00 | OB(O)c1ccc(CNc2cccc3ccccc23)cc1 [II-118]
9 | > 8.00 | OB(O)c1ccc(COc2cccc3ccccc23)cc1 [II-119]
10 | 7.00 to 8.00 | OB(O)c1ccc(OCCCOc2ccccn2)cc1 [II-120]
11 | 7.00 to 8.00 | OB(O)c1cccc(CCOc2ccccc2)c1 [II-121]
12 | 7.00 to 8.00 | O=c1ccccn1CCCOc1ccc(B(O)O)cc1 [II-122]
13 | 7.00 to 8.00 | OB(O)c1ccc(COC2CCCc3ccccc32)cc1 (centres unmarked) [II-123]
14 | > 8.00 | OB(O)c1ccc(COC2CCc3ccccc32)cc1 (centres unmarked) [II-124]
15 | < 6.00 | Cn1ccc2cc(B(O)O)ccc21 [II-125]
16 | > 8.00 | CC(OCc1ccc(B(O)O)cc1)c1ccccc1 (centres unmarked) [II-126]
17 | > 8.00 | OB(O)c1ccc(COC2CCCCC2)cc1 [II-127]
18 | > 8.00 | OB(O)c1ccc(OCCCOc2ccccc2)cc1 [II-128]
19 | > 8.00 | OB(O)c1ccc(OCCOc2ccccc2)cc1 [II-129]
20 | > 8.00 | C/C(=N\OCc1ccccc1)c1ccc(B(O)O)cc1 [II-130]
21 | > 8.00 | CN(Cc1ccccc1)Cc1ccc(B(O)O)cc1 [II-131]
22 | > 8.00 | OB(O)c1ccc(COCc2ccccc2)cc1 [II-132]
23 | > 8.00 | CC(C)(C)OC(=O)n1cncc1COc1ccc(B2OC(C)(C)C(C)(C)O2)c(F)c1 [II-133]
24 | 7.00 to 8.00 | OB(O)c1ccc(OCc2ccn[nH]2)cc1F [II-134]
25 | 7.00 to 8.00 | OB(O)c1ccc(OCc2cnco2)cc1F [II-135]
26 | > 8.00 | CC(Cc1ccccc1)Oc1ccc(B(O)O)c(F)c1 (centres unmarked) [II-136]

Row | pKi | Compound
27 | > 8.00 | C[C@H](COc1ccc(B(O)O)c(F)c1)c1ccccc1 [II-137]
28 | > 8.00 | OB(O)c1ccc(OC2Cc3ccccc3C2)cc1F [II-138]
29 | > 8.00 | C[C@@H](COc1ccc(B(O)O)c(F)c1)c1ccccc1 [II-139]
30 | > 8.00 | O=C(COc1ccc(B(O)O)c(F)c1)c1ccccc1 [II-140]
31 | > 8.00 | CN(Cc1ccc(B(O)O)cc1)c1ccccc1 [II-141]
32 | > 8.00 | OB(O)c1ccc(CN2CCc3ccccc32)cc1 [II-142]
33 | > 8.00 | OB(O)c1ccc(CN2CCCc3ccccc32)cc1 [II-143]
34 | 7.00 to 8.00 | O=C1c2ccc(B(O)O)cc2C(=O)N1c1ccccc1 [II-144]
35 | > 8.00 | OB(O)c1ccc(Cn2ccc3ccccc32)cc1 [II-145]
36 | > 8.00 | Cc1cc(COc2ccc(B(O)O)c(F)c2)ccc1F [II-146]
37 | 7.00 to 8.00 | CC1(C)OB(c2ccc(OCc3ccn[nH]3)cc2F)OC1(C)C [II-147]
38 | 7.00 to 8.00 | CC1(C)OB(c2ccc(OCc3cnco3)cc2F)OC1(C)C [II-148]
39 | > 8.00 | OB(O)c1ccc(Oc2cccnc2)cc1F [II-149]
40 | > 8.00 | CC1(C)OB(c2ccc(Oc3cccnc3)cc2F)OC1(C)C [II-150]
41 | 6.00 to 8.00 | O=C(OCc1ccccc1)c1cc(Oc2cccc(F)c2)ccc1B(O)O [II-151]
42 | > 8.00 | OB(O)c1ccc(CNc2ccccc2)cc1 [II-152]
43 | > 8.00 | CC1(C)OB(c2ccc(Cn3ccc4ccccc43)cc2)OC1(C)C [II-153]
44 | > 8.00 | CC1(C)OB(c2ccc(CNc3ccccc3)cc2)OC1(C)C [II-154]
45 | 7.00 to 8.00 | O=C(c1ccc(B(O)O)cc1)N(Cc1ccccc1)c1ccccc1 [II-155]
46 | > 8.00 | OB(O)c1ccc(OCCCc2ccccc2)cc1F [II-156]
47 | 6.00 to 8.00 | OB(O)c1ccc(CN(Cc2ccccc2)Cc2ccccc2)cc1 [II-157]
48 | < 6.00 | OB(O)c1ccc(CN(c2ccccc2)c2ccccc2)cc1 [II-158]
49 | 7.00 to 8.00 | OB(O)c1ccc(OCc2cncs2)cc1F [II-159]
50 | 7.00 to 8.00 | OB(O)c1ccc(OCc2cccnc2)cc1F [II-160]
51 | 7.00 to 8.00 | CC1(C)OB(c2ccc(OCc3cccnc3)cc2F)OC1(C)C [II-161]
52 | < 6.00 | Nc1cc(Oc2cccc(F)c2)ccc1B(O)O [II-162]

Row | pKi | Compound
53 | 7.00 to 8.00 | CN(Cc1ccccc1)C(=O)c1ccc(B(O)O)cc1 [II-163]
54 | 7.00 to 8.00 | O=C(c1ccc(B(O)O)cc1)N1CCCCC1 [II-164]
55 | 7.00 to 8.00 | OB(O)c1ccc(OCCCCc2ccccc2)cc1 [II-165]
56 | 7.00 to 8.00 | CC1(C)OB(c2ccc(OCCCCc3ccccc3)cc2)OC1(C)C [II-166]
57 | > 8.00 | OB(O)c1ccc(OCCc2ccccc2)cc1 [II-167]
58 | 7.00 to 8.00 | CC1(C)OB(c2ccc(OCCc3ccccc3)cc2)OC1(C)C [II-168]
59 | > 8.00 | OB(O)c1ccc(OCCCc2ccccc2)cc1 [II-169]
60 | 7.00 to 8.00 | CC1(C)OB(c2ccc(OCCCc3ccccc3)cc2)OC1(C)C [II-170]
61 | 7.00 to 8.00 | C[C@@H](NC(=O)c1ccc(B(O)O)cc1)c1ccccc1 [II-171]
62 | 7.00 to 8.00 | C[C@H](NC(=O)c1ccc(B(O)O)cc1)c1ccccc1 [II-172]
63 | < 6.00 | CN(C)c1cc(Oc2ccc(B(O)O)cc2)cc(Oc2cccc3ccccc23)c1 [II-173]
64 | > 8.00 | CC1(C)OB(c2ccc(OCc3cncs3)cc2F)OC1(C)C [II-174]
65 | < 6.00 | OB(O)c1ccc(OCc2ccccn2)cc1F [II-175]
66 | > 8.00 | CC1(C)OB(c2ccc(OCc3ccccn3)cc2F)OC1(C)C [II-176]
67 | 7.00 to 8.00 | OB(O)c1ccc(OCc2ccncc2)cc1F [II-177]
68 | < 6.00 | CC1(C)OB(c2ccc(CN(Cc3ccccc3)Cc3ccccc3)cc2)OC1(C)C [II-178]
69 | 7.00 to 8.00 | CC1(C)OB(c2ccc(OCc3ccncc3)cc2F)OC1(C)C [II-179]
70 | < 6.00 | CN(C)c1cc(Oc2ccc(B(O)O)cc2)cc(Oc2cccc(F)c2)c1 [II-180]
71 | 6.00 to 8.00 | CN(C)c1cc(Oc2ccc(Cl)cc2)cc(Oc2ccc(B(O)O)cc2)c1 [II-181]
72 | 7.00 to 8.00 | CN(C)c1ccc(/N=N/c2ccc(B(O)O)cc2)cc1 [II-182]
73 | 7.00 to 8.00 | COC(=O)c1cc(Oc2cccc(F)c2)ccc1B(O)O [II-183]
74 | 7.00 to 8.00 | c1ccc(-c2ccc(B3CCCO3)cc2)cc1 [II-184]
75 | 6.00 to 8.00 | CN(C)c1ccc(/N=N/c2ccc(B3OC(C)(C)C(C)(C)O3)cc2)cc1 [II-185]
76 | < 6.00 | c1ccc(B2CCCO2)cc1 [II-186]
77 | 7.00 to 8.00 | Cc1cc(NCc2ccc(B3OC(C)(C)C(C)(C)O3)cc2)ccc1F [II-187]
78 | < 6.00 | Cc1cc(CNc2ccc(B3OC(C)(C)C(C)(C)O3)cc2)ccc1F [II-188]

Row | pKi | Compound
79 | < 6.00 | OB(O)c1ccc(/C=C\c2ccccc2)cc1 [II-189]
80 | 7.00 to 8.00 | OB(O)c1ccc(Oc2cccc(Oc3cccc4ccccc34)c2)cc1 [II-190]
81 | > 8.00 | OB(O)c1ccc(Oc2cccc(Oc3ccc(Cl)cc3)c2)cc1 [II-191]
82 | 7.00 to 8.00 | COc1ccc(Oc2cc(Oc3ccc(B(O)O)cc3)cc(N(C)C)c2)cc1 [II-192]
83 | > 8.00 | COc1ccc(Oc2cccc(Oc3ccc(B(O)O)cc3)c2)cc1 [II-193]
84 | > 8.00 | OB(O)c1ccc(Oc2cccc(F)c2)c(F)c1F [II-194]
85 | > 8.00 | OB(O)c1c(F)cc(Oc2cccc(F)c2)cc1F [II-195]
86 | < 6.00 | OB(O)c1ccc(Oc2cccc(N3CCCCC3)c2)cc1F [II-196]
87 | 7.00 to 8.00 | OB(O)c1ccc(Oc2cccc(N3CCCC3)c2)cc1F [II-197]
88 | > 8.00 | OB(O)c1cc(F)c(Oc2cccc(F)c2)c(F)c1 [II-198]
89 | > 8.00 | Cc1cc(CSc2ccc(B(O)O)c(F)c2)ccc1F [II-199]
90 | > 8.00 | CNc1cccc(Oc2ccc(B(O)O)c(F)c2)c1 [II-200]
91 | 7.00 to 8.00 | CN(C)c1cccc(Oc2ccc(B(O)O)c(F)c2)c1 [II-201]
92 | 7.00 to 8.00 | OB(O)c1ccc(Oc2cccc(F)c2)cc1C(F)(F)F [II-202]
93 | > 8.00 | N#Cc1cc(Oc2cccc(F)c2)ccc1B(O)O [II-203]
94 | > 8.00 | COc1cc(Oc2cccc(F)c2)ccc1B(O)O [II-204]
95 | > 8.00 | CN(C)c1cccc(Oc2ccc(B(O)O)cc2F)c1 [II-205]
96 | > 8.00 | COc1cccc(Oc2ccc(B(O)O)c(F)c2)c1 [II-206]
97 | > 8.00 | OB(O)c1ccc(Oc2cccc(F)c2)cc1Cl [II-207]
98 | 7.00 to 8.00 | Cc1cc(-c2cccc(F)c2)ccc1B(O)O [II-208]
99 | 7.00 to 8.00 | Cc1cc(Oc2cccc(F)c2)ccc1B(O)O [II-209]
100 | > 8.00 | OB(O)c1ccc(Oc2ccc(F)c(F)c2)cc1F [II-210]
101 | > 8.00 | Cc1ccc(Oc2ccc(B(O)O)c(F)c2)cc1Cl [II-211]
102 | > 8.00 | OB(O)c1ccc(Oc2cccc(OC(F)(F)F)c2)cc1F [II-212]
103 | > 8.00 | Cc1cc(Oc2ccc(B(O)O)c(F)c2)ccc1Cl [II-213]
104 | < 6.00 | CN(C)CCN(Cc1ccccc1)C(=O)C(Oc1ccc(B(O)O)cc1)c1ccccc1 (centres unmarked) [II-214]

From patent US8329675B2, “Inhibitors of fatty acid amide hydrolase” (Infinity Pharmaceuticals, Inc., priority 2006, dated 2012)
